Experimental data published in US20240398821A1, “FLAVONOID DERIVATIVES WITH GABAA RECEPTOR ACTIVITY AND METHODS OF USE” (RUTGERS, THE STATE UNIVERSITY OF NEW JERSEY, priority 2021, published 2024).

Key:
[1] = target: T1, GABAA α5θ3γ2L (Homo sapiens, UniProt P18507+P28472+P31644); assay: SyncroPatch automated patch-clamp electrophysiology, PAM mode; format: cell-based
T1 construct: expressed in transfected cells
Description: (§1) To evaluate GABAA receptor activity, compounds were evaluated with electrophysiology studies of against 4 GABAA subtypes (GABAA α1β2γ2L, α2θ3γ2L, α5θ3γ2L and α4θ3δ) in positive allosteric modulator (PAM) mode using the SyncroPatch automated platform at room temperature. A 6-point concentration-response curve of each test compound (10, 1, 0.1, 0.01, 0.001, or 0.0001 μM in DMSO). The rapid addition protocol was used, in which compound is rapidly applied and then washed off from the cell. 0.3% DMSO was used as negative control.
(§2) Test compounds: 6-point concentration-response curve of each test compound (10, 1, 0.1, 0.01, 0.001, 0.0001 μM in DMO).
(§3) Positive control: 5-point concentration-response curve of allopregnanolone ([…]).
(§4) Negative control: 0.3% DMSO
(§5) Each compound is tested across the plate with a single concentration per cell. A minimum of 2 wells are obtained per each concentration.
(§6) Powder stocks and DMSO stocks are stored at room temperature (in the dark). The powder stocks are diluted to 3 mM in 100% DMSO on the day of experiment.
(§7) SyncroPatch specific solutions are used throughout the assay. DMSO remains constant at 0.3% in the external solution throughout the assay.
(§8) The rapid addition protocol is used, in which compound is rapidly applied and then washed off from the cell. To test for PAM activity, the agonist GABA EC10-20 is applied three times (with wash steps in-between) as a control and to show activation reproducibility, followed by a 1 to 2 minute pre-incubation of client compound and then re-application of GABA EC10-20 in the presence of client compound. After a further wash step, maximum GABA (10 mM) is applied.
(§9) Automated patch clamp-recordings are performed using the SyncroPatch 384i. The voltage protocol generation and data collection are performed with PatchController384 V1.9.0 and Data Controller V1.9.0.
(§10) The fold increase is generated using the following equation, (Icomp/Icontrol)−1, where Icomp is the current amplitude in the presence of the compound and Icontrol is the current amplitude in the presence of agonist alone. This builds an EC50 concentration-response curve, where 0 represents no PAM activity and >0 represents PAM activity. […] The % Emax relative to Allopregnanolone is generated using the following equation, • [(IMaxComp/IAveMaxCtrl)*100], where IMaxComp is the individual maximum fold increase in current for each compound and IAveMaxCtrl is the average maximum fold increase generated in the presence of the control, allopregnanolone.
(§11) To test for PAM activity, the agonist GABA EC 10-20 was applied three times (with wash steps in-between) as a control and to show activation reproducibility, followed by a 1 to 2 minutes pre-incubation of client compound and then re-application of GABA EC 10-20 in the presence of client compound. After a further wash step, maximum GABA (10 mM) was applied. Allopregnanolone was utilized as a positive control. FIGS. 5A and 5B show for dose response of EC2-118 in comparison to that of allopregnanolone (positive control).

[2] = target: T2, GABAA α2θ3γ2L (Homo sapiens, UniProt P18507+P28472+P47869); assay: as above; format: cell-based; details: for Potency, α2βy, *EC50 / EC50: PAM mode, GABA EC10-20, 6-point curve up to 10 μM, EC50 called extrapolated; for EC50: read-out: Potency, α2βy, *EC50; for Potency, α2βy, % in brackets: bracketed % beside EC50/IC50
T2 construct: expressed in transfected cells
Description: as §1, §2, §3, §4, §5, §6, §7, §8, §9, §10, §11

[3] = target: T3, GABAA α4θ3δ (Homo sapiens, UniProt O14764+P28472+P48169); assay: as above; format: cell-based; details: for Potency, α4βδ (also printed α4βy), % in brackets: bracketed % beside EC50/IC50
T3 construct: expressed in transfected cells
Description: as §1, with “A 6-point concentration-response curve of each test compound (10, 1, 0.1, 0.01, 0.001, or 0.0001 μM in DMSO).” left out
as §3, §4, §5, §6, §7
(§12) The rapid addition protocol is used, in which compound is rapidly applied and then washed off from the cell. […] After a further wash step, maximum GABA (10 mM) is applied.
(§13) The voltage protocol generation and data collection are performed with PatchController384 V1.9.0 and Data Controller V1.9.0.
as §10, with “alone.” for “alone. This builds an EC50 concentration-response curve, where 0 represents no PAM activity and >0 represents PAM activity.”
(§14) After a further wash step, maximum GABA (10 mM) was applied. Allopregnanolone was utilized as a positive control.

[4] = target: T4, GABAA α1β2γ2L (Homo sapiens, UniProt P14867+P18507+P47870); assay: as above; format: cell-based; details: for Potency, α1βy, % in brackets: bracketed % beside EC50/IC50
T4 construct: expressed in transfected cells
Description: as §1, with “A 6-point concentration-response curve of each test compound (10, 1, 0.1, 0.01, 0.001, or 0.0001 μM in DMSO).” left out
as §3, §4, §5, §6, §7, §12, §13
as §10, with “alone.” for “alone. This builds an EC50 concentration-response curve, where 0 represents no PAM activity and >0 represents PAM activity.”
as §14

[5] = test system: GABAA receptor; assay: Preliminary classification of GABAAR modulation from electrophysiology against 4 GABAA subtypes; format: cell-based; details: from the four subtype results
From the text: As an assessment for potential anxiolytic activity, compounds were screened for in vitro GABAA receptor activity utilizing electrophysiology studies. This is a well-established method of assessing activity of GABAA receptor positive allosteric modulators (PAMs) with known anxiolytic activity. The link between anxiolytic and sedative activity associated with α1/2/3βγ GABAAR subtypes is also well-established by previous studies. and there is a well-established history of clinical efficacy, utility, and risks associated with the use of full GABAAR PAMs [i.e. benzodiazepines (BZDs)] in the treatment of anxiety and seizure disorders.
as §1
The fold increase is generated using the following equation, (Icomp/Icontrol)−1, where Icomp is the current amplitude in the presence of the compound and Icontrol is the current amplitude in the presence of agonist alone. This builds an EC50 concentration-response curve, where 0 represents no PAM activity and >0 represents PAM activity. If a “bell-shape curve” is observed at the higher concentrations, showing a reduction in activity in comparison to previous concentrations, then to allow for a more accurate curve fit, these concentrations are removed from the graphs where necessary and noted in the compound table. The % Emax relative to Allopregnanolone is generated using the following equation, • [(IMaxComp/IAveMaxCtrl)*100], where IMaxComp is the individual maximum fold increase in current for each compound and IAveMaxCtrl is the average maximum fold increase generated in the presence of the control, allopregnanolone.

[6] = test system: anxiety; assay: Open field test (OFT) and elevated plus maze (EPM), IP administration; format: in vivo, rats
Description: FIG. 7 is a representation of rat movements during an open field test. Increased time in the open arms signifies anti-anxiety activity. […] The purple lines represent the motion of the rat.
In vivo studies in rats were conducted in the Bello laboratory as preliminary screening for activity of EC2-118. Male and female rats were exposed to an open field test (OFT) and elevated plus maze (EPM) 7 days apart (Kshatriya et al., 2020). Each group (n=8/group, […]) received IP injection 30 min prior to IP dosing of EC2-118 or vehicle control. We performed OFT and EPM in 52 adult SD rats (26 male/26 female). The groups were as follow vehicle (0.9% Saline, 4% Tween 80, and 4% DMSO; n=9 males; n=10 females), 3.95 mg/kg (n=10 males; n=8 females), 12.5 mg/kg (n=7 males, females n=8).

[7] = test system: loss-of-righting-reflex; assay: Loss-of-righting-reflex (LORR), alone and with alcohol; format: in vivo; details: rats
Description: Rats were given EC2-118 (3.95 mg/kg IP) and alcohol (3 g/kg) and assessed for duration of loss-of-righting-reflex (LORR). […] The effects of EC2-118 (12.5 mg/kg IP) on alcohol-induced LORR were not determined.

[8] = PAM mode, GABA EC10-20, 6-point curve up to 10 μM
[9] = PAM mode, GABA EC10-20, 6-point curve up to 10 μM, EC50 called extrapolated

T1 sequence (P31644 32-462): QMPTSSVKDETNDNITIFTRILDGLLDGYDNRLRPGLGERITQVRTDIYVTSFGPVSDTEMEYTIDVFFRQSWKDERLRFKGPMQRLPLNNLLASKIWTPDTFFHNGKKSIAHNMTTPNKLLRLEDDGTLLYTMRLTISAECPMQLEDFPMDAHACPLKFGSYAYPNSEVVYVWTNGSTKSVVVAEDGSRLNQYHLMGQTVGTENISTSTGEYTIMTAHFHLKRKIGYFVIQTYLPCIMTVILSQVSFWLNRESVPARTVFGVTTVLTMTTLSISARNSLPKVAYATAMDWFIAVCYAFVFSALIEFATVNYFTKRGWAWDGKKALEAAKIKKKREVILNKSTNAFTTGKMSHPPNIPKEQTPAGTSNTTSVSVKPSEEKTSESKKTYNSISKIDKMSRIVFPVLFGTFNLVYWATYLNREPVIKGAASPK
T1 sequence (P28472 26-473): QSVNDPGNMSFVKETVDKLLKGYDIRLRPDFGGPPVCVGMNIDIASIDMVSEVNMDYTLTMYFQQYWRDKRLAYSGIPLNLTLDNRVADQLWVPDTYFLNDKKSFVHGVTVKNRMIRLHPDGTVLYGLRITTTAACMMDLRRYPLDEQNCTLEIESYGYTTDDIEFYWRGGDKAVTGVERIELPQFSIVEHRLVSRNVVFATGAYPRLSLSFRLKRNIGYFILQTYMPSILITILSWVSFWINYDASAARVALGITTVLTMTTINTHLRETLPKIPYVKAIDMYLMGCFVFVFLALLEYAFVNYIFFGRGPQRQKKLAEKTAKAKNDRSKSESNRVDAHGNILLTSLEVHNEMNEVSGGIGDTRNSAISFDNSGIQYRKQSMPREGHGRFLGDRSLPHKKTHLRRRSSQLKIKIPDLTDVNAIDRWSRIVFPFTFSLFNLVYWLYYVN
T1 sequence (P18507 40-475): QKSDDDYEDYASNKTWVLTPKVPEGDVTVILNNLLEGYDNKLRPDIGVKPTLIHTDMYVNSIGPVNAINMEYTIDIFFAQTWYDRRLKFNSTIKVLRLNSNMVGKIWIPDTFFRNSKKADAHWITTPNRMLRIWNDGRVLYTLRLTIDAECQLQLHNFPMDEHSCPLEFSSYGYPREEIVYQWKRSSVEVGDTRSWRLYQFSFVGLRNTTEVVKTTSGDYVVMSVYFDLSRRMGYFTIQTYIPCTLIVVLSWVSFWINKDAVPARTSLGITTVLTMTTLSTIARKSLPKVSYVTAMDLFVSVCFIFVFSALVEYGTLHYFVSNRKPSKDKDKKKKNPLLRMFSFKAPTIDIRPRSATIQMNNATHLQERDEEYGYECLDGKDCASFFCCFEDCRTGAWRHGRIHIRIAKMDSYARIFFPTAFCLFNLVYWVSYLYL
T4 sequence (P14867 28-456): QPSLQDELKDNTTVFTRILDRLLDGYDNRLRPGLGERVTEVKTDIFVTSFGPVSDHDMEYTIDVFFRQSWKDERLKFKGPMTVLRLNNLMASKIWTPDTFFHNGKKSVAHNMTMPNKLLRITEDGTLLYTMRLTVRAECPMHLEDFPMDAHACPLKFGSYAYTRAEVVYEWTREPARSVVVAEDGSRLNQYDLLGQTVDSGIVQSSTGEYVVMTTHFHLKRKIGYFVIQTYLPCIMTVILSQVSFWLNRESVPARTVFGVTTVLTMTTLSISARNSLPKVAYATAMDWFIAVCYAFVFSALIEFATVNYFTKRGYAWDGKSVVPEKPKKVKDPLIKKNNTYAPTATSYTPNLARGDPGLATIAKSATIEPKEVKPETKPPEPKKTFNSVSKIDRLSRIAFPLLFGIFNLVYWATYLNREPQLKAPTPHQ
T4 sequence (P47870 25-512 limits assumed): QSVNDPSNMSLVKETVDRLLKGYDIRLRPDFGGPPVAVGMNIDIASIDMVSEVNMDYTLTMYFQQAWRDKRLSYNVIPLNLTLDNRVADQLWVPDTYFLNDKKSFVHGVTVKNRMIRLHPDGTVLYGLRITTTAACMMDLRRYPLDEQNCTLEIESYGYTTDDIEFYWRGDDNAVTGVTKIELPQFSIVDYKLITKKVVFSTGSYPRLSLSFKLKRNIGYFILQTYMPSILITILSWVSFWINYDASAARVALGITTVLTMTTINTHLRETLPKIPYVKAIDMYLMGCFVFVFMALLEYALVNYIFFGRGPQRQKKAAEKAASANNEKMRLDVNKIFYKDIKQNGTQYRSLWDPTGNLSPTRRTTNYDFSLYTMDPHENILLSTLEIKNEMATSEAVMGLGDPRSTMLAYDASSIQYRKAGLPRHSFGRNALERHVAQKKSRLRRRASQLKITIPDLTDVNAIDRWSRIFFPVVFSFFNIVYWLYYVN
T4 sequence (P18507 40-475): as the sequence (P18507 40-475) above
T3 sequence (P48169 36-554): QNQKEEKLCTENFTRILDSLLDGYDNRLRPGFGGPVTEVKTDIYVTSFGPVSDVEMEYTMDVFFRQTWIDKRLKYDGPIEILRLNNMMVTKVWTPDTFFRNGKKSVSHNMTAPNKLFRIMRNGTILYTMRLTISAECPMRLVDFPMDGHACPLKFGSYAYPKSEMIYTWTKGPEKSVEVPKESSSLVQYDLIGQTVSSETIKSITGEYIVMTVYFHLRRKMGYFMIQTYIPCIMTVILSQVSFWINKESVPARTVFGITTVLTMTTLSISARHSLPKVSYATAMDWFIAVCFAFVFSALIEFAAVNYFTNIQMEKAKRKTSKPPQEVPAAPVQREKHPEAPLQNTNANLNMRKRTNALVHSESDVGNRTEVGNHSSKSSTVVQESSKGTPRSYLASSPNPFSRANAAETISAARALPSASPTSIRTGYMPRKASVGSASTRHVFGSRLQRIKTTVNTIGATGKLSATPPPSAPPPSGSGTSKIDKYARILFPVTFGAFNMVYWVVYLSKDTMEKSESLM
T3 sequence (P28472 26-473): as the sequence (P28472 26-473) above
T3 sequence (O14764 17-452 limits assumed): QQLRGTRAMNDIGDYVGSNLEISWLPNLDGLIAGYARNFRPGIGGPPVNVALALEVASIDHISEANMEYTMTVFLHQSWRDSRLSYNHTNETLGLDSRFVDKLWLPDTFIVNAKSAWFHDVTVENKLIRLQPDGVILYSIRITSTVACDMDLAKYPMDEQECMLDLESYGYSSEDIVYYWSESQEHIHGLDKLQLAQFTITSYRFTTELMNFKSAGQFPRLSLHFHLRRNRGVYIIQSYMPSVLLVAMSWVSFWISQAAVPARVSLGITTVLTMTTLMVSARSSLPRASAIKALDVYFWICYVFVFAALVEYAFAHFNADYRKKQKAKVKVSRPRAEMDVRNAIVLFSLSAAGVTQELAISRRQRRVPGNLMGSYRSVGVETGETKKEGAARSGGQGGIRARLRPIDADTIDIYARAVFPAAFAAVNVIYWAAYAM
T2 sequence (P47869 29-451): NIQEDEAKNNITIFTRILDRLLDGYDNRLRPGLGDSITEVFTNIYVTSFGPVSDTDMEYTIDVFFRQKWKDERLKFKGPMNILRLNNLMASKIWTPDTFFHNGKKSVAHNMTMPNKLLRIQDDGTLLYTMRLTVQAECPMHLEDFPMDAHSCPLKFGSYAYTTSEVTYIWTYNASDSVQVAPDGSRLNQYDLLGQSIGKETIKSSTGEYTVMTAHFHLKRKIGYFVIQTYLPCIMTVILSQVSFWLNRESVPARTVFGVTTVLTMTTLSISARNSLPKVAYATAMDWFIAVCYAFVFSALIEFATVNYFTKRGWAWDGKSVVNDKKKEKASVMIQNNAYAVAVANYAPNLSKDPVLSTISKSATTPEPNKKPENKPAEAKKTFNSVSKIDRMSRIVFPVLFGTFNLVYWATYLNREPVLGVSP
T2 sequence (P28472 26-473): as the sequence (P28472 26-473) above
T2 sequence (P18507 40-475): as the sequence (P18507 40-475) above

O=c1cc(-c2cccc([N+](=O)[O-])c2)oc2ccc(Br)cc12 [6-bromo-3′-nitroflavone, reference compound]
Potency, α5βy, *EC50 [1, 8]: N.R. | Potency, α2βy, *EC50 [2]: N.R. | IC50 [3]: > 10 µM | Potency, α4βδ (also printed α4βy), % in brackets [3]: −30% | IC50 [4]: 0.0059 µM | Potency, α1βy, % in brackets [4]: −21% | Preliminary Classification of type of GABAAR modulation [5]: Partial α1 NAM

O=C1c2cc(Br)ccc2OC(c2ccccc2)C1(CO)CO (stereo not drawn) [EC2-52, 6-bromo-3,3-bis(hydroxymethyl)-2-phenylchroman-4-one]
EC50 ([1]; PAM mode, GABA EC10-20, 6-point curve up to 10 μM, read-out: Potency, α5βy, *EC50): 1.92 µM | Potency, α5βy, % in brackets ([1]; bracketed % beside EC50/IC50): +22% | Potency, α2βy, *EC50 [2]: N.R. | Potency, α4βδ (also printed α4βy), *EC50 [3, 8]: N.R. | Potency, α1βy, *EC50 [4, 9]: N.R. | Preliminary Classification of type of GABAAR modulation [5]: Partial α5 GABAAR PAM

O=C1c2ccccc2OC(c2cccc([N+](=O)[O-])c2)C1(CO)CO (stereo not drawn) [EC2-104, 3,3-bis(hydroxymethyl)-2-(3-nitrophenyl)chroman-4-one]
Potency, α5βy, *EC50 [1, 8]: N.R. | EC50 [2]: 11.8 µM | Potency, α2βy, % in brackets [2]: +28% | EC50 ([3]; PAM mode, GABA EC10-20, 6-point curve up to 10 μM, read-out: Potency, α4βδ (also printed α4βy), *EC50): > 10 µM | Potency, α4βδ (also printed α4βy), % in brackets [3]: +30% | Potency, α1βy, *EC50 [4, 9]: N.R. | Preliminary Classification of type of GABAAR modulation [5]: Partial α2 GABAAR PAM

O=C1NC(c2cccc([N+](=O)[O-])c2)Nc2ccc(Br)cc21 (stereo not drawn) [EC2-117, 6-bromo-2-(3-nitrophenyl)-2,3-dihydroquinazolin-4(1H)-one]
Potency, α5βy, *EC50 [1, 8]: α1 βy (N.R.) α2βy (N.R.) α5βy (N.R.) α4ßy (N.R.) | Potency, α2βy, *EC50 [2]: α1 βy (N.R.) α2βy (N.R.) α5βy (N.R.) α4ßy (N.R.) | Potency, α4βδ (also printed α4βy), *EC50 [3, 8]: α1 βy (N.R.) α2βy (N.R.) α5βy (N.R.) α4ßy (N.R.) | Potency, α1βy, *EC50 [4, 9]: α1 βy (N.R.) α2βy (N.R.) α5βy (N.R.) α4ßy (N.R.) | Preliminary Classification of type of GABAAR modulation [5]: Not active

O=C1NC(c2cccc([N+](=O)[O-])c2)Oc2ccc(Br)cc21 (stereo not drawn) [EC2-118, 6-bromo-2-(3-nitrophenyl)-2,3-dihydro-4H-benzo[e][1,3]oxazin-4-one]
Potency, α5βy, *EC50 [1, 8]: N.R. | EC50 [2]: 0.125 µM | Potency, α2βy, % in brackets [2]: +26% | Anxiolytic effect in OFT and EPM vs vehicle control ([6]; 3.95 mg/kg IP, male and female SD rats, two-way ANOVA): significant differences between 3.95 mg/kg dose and vehicle control | Effect in the open field test (OFT) ([6]; 12.5 mg/kg IP, rats): did not exhibit a significant effect | Lethargy (observation) ([6]; 12.5 mg/kg IP, rats): increased lethargy | Potency, α4βδ (also printed α4βy), *EC50 [3, 8]: N.R. | EC50 ([4]; PAM mode, GABA EC10-20, 6-point curve up to 10 μM, EC50 called extrapolated, read-out: Potency, α1βy, *EC50): 0.136 µM | Potency, α1βy, % in brackets [4]: +29% | Impact on alcohol-induced LORR (duration) ([7]; 3.95 mg/kg IP with alcohol 3 g/kg): did not have a significant impact on alcohol-induced LORR | Induction of LORR by compound alone ([7]; 3.95 mg/kg, 12.95 IP): did not induce an LORR | Preliminary Classification of type of GABAAR modulation [5]: Partial α1/2 GABAAR PAM

O=C1c2cc(Br)ccc2OC(c2cccc([N+](=O)[O-])c2)C1(CO)CO (stereo not drawn) [EC2-124]
Potency, α5βy, *EC50 [1, 8]: α1ßy (N.R.) α2βy (N.R.) α5βy (N.R.) α4βy (N.R.) | Potency, α2βy, *EC50 [2]: α1ßy (N.R.) α2βy (N.R.) α5βy (N.R.) α4βy (N.R.) | Potency, α4βδ (also printed α4βy), *EC50 [3, 8]: α1ßy (N.R.) α2βy (N.R.) α5βy (N.R.) α4βy (N.R.) | Potency, α1βy, *EC50 [4, 9]: α1ßy (N.R.) α2βy (N.R.) α5βy (N.R.) α4βy (N.R.) | Preliminary Classification of type of GABAAR modulation [5]: Not Active
